Species: Rattus norvegicus
Test: DrugMatrix - Regimen: Daily Repeat
Format: toxicity, organism-based, Sprague-Dawley
Design: regimen Daily Repeat, gender Male, age 6-8 weeks
Details: in vivo, po, route oral GAVAGE, vehicle .5 % CMC; for ABSOLUTE BASOPHIL / ABSOLUTE EOSINOPHIL / ABSOLUTE LYMPHOCYTE / ABSOLUTE MONOCYTE / ABSOLUTE SEGMENTED NEUTROPHIL / BASOPHIL / EOSINOPHIL / ERYTHROCYTE COUNT / HEMATOCRIT / HEMOGLOBIN / LEUKOCYTE COUNT / LYMPHOCYTE / MEAN CORPUSCULAR HEMOGLOBIN / MEAN CORPUSCULAR HEMOGLOBIN CONCENTRATION / MEAN CORPUSCULAR VOLUME / MONOCYTE / NEUTROPHIL / NUCLEATED RED BLOOD CELLS / PLATELET COUNT: tissue Blood; for ALANINE AMINOTRANSFERASE / ALBUMIN / ALKALINE PHOSPHATASE / ASPARTATE AMINOTRANSFERASE / BLOOD UREA NITROGEN / CARBON DIOXIDE / CHLORIDE / CHOLESTEROL / CREATINE PHOSPHOKINASE / CREATININE / GLUCOSE / LACTATE DEHYDROGENASE / LIPASE / PHOSPHORUS / POTASSIUM / SODIUM / TOTAL BILIRUBIN / TOTAL PROTEIN / URIC ACID: tissue Plasma
[1] = 0 mg/kg, 72 h, dose level Control, time 3 day
[2] = 0 mg/kg, 120 h, dose level Control, time 5 day
[3] = 385.5 mg/kg, 72 h, dose level Low, time 3 day

Structure (SMILES): Cn1c(=O)c2c(ncn2CC(O)CO)n(C)c1=O (centres undefined) [DYPHYLLINE]
- ABSOLUTE BASOPHIL [1]: 0 CELLS/uL
- ABSOLUTE EOSINOPHIL [1]: 32.5 CELLS/uL
- ABSOLUTE LYMPHOCYTE [1]: 13494.17 CELLS/uL
- ABSOLUTE MONOCYTE [1]: 474 CELLS/uL
- ABSOLUTE SEGMENTED NEUTROPHIL [1]: 1932.67 CELLS/uL
- BASOPHIL [1]: 0%
- EOSINOPHIL [1]: 0.17%
- ERYTHROCYTE COUNT [1]: 5.45 x10E6/uL
- HEMATOCRIT [1]: 34.32%
- HEMOGLOBIN [1]: 13.82 G/DL
- LEUKOCYTE COUNT [1]: 15.93 x10E3/uL
- LYMPHOCYTE [1]: 84.83%
- MEAN CORPUSCULAR HEMOGLOBIN [1]: 25.38 pg
- MEAN CORPUSCULAR HEMOGLOBIN CONCENTRATION [1]: 40.27 G/DL
- MEAN CORPUSCULAR VOLUME [1]: 63.05 fL
- MONOCYTE [1]: 3%
- NEUTROPHIL [1]: 12%
- NUCLEATED RED BLOOD CELLS [1]: 0.67 /100WBC
- PLATELET COUNT [1]: 1188.5 x10E3/uL
- ALANINE AMINOTRANSFERASE [1]: 54.83 u/L
- ALBUMIN [1]: 4.22 G/DL
- ALKALINE PHOSPHATASE [1]: 427.67 u/L
- ASPARTATE AMINOTRANSFERASE [1]: 86.5 u/L
- BLOOD UREA NITROGEN [1]: 15.33 mg/dL
- CARBON DIOXIDE [1]: 24.83 mmol/L
- CHLORIDE [1]: 102.33 MEQ/L
- CHOLESTEROL [1]: 71.67 mg/dL
- CREATINE PHOSPHOKINASE [1]: 442.5 u/L
- CREATININE [1]: 0.19 mg/dL
- GLUCOSE [1]: 160.67 mg/dL
- LACTATE DEHYDROGENASE [1]: 236.5 u/L
- LIPASE [1]: 9 u/L
- PHOSPHORUS [1]: 11.97 mg/dL
- POTASSIUM [1]: 6.2 MEQ/L
- SODIUM [1]: 142.85 MEQ/L
- TOTAL BILIRUBIN [1]: 0.2 mg/dL
- TOTAL PROTEIN [1]: 5.8 G/DL
- URIC ACID [1]: 1.3 mg/dL
- ABSOLUTE BASOPHIL [2]: 0 CELLS/uL
- ABSOLUTE EOSINOPHIL [2]: 114.5 CELLS/uL
- ABSOLUTE LYMPHOCYTE [2]: 14614 CELLS/uL
- ABSOLUTE MONOCYTE [2]: 173 CELLS/uL
- ABSOLUTE SEGMENTED NEUTROPHIL [2]: 1048.5 CELLS/uL
- BASOPHIL [2]: 0%
- EOSINOPHIL [2]: 0.67%
- ERYTHROCYTE COUNT [2]: 5.66 x10E6/uL
- HEMATOCRIT [2]: 35.52%
- HEMOGLOBIN [2]: 14.27 G/DL
- LEUKOCYTE COUNT [2]: 15.95 x10E3/uL
- LYMPHOCYTE [2]: 91.33%
- MEAN CORPUSCULAR HEMOGLOBIN [2]: 25.23 pg
- MEAN CORPUSCULAR HEMOGLOBIN CONCENTRATION [2]: 40.2 G/DL
- MEAN CORPUSCULAR VOLUME [2]: 62.7 fL
- MONOCYTE [2]: 1.17%
- NEUTROPHIL [2]: 6.83%
- NUCLEATED RED BLOOD CELLS [2]: 0.33 /100WBC
- PLATELET COUNT [2]: 1229 x10E3/uL
- ALANINE AMINOTRANSFERASE [2]: 58.67 u/L
- ALBUMIN [2]: 4.32 G/DL
- ALKALINE PHOSPHATASE [2]: 382.5 u/L
- ASPARTATE AMINOTRANSFERASE [2]: 81.67 u/L
- BLOOD UREA NITROGEN [2]: 17.67 mg/dL
- CARBON DIOXIDE [2]: 27.17 mmol/L
- CHLORIDE [2]: 102.33 MEQ/L
- CHOLESTEROL [2]: 63.67 mg/dL
- CREATINE PHOSPHOKINASE [2]: 227.67 u/L
- CREATININE [2]: 0.23 mg/dL
- GLUCOSE [2]: 155.33 mg/dL
- LACTATE DEHYDROGENASE [2]: 146.5 u/L
- LIPASE [2]: 10.67 u/L
- PHOSPHORUS [2]: 11.93 mg/dL
- POTASSIUM [2]: 6.85 MEQ/L
- SODIUM [2]: 143.95 MEQ/L
- TOTAL BILIRUBIN [2]: 0.18 mg/dL
- TOTAL PROTEIN [2]: 6.02 G/DL
- URIC ACID [2]: 1.63 mg/dL
- ABSOLUTE BASOPHIL [3]: 0 CELLS/uL
- ABSOLUTE EOSINOPHIL [3]: 40.67 CELLS/uL
- ABSOLUTE LYMPHOCYTE [3]: 10748 CELLS/uL
- ABSOLUTE MONOCYTE [3]: 461.33 CELLS/uL
- ABSOLUTE SEGMENTED NEUTROPHIL [3]: 1483.33 CELLS/uL
- BASOPHIL [3]: 0%
- EOSINOPHIL [3]: 0.33%
- ERYTHROCYTE COUNT [3]: 5.3 x10E6/uL
- HEMATOCRIT [3]: 33.37%
- HEMOGLOBIN [3]: 13.27 G/DL
- LEUKOCYTE COUNT [3]: 12.73 x10E3/uL
- LYMPHOCYTE [3]: 86%
- MEAN CORPUSCULAR HEMOGLOBIN [3]: 25.13 pg
- MEAN CORPUSCULAR HEMOGLOBIN CONCENTRATION [3]: 39.8 G/DL
- MEAN CORPUSCULAR VOLUME [3]: 63.07 fL
- MONOCYTE [3]: 3%
- NEUTROPHIL [3]: 10.67%
- NUCLEATED RED BLOOD CELLS [3]: 0.33 /100WBC
- PLATELET COUNT [3]: 1358 x10E3/uL
- ALANINE AMINOTRANSFERASE [3]: 42.67 u/L
- ALBUMIN [3]: 4.03 G/DL
- ALKALINE PHOSPHATASE [3]: 400.67 u/L
- ASPARTATE AMINOTRANSFERASE [3]: 72 u/L
- BLOOD UREA NITROGEN [3]: 15.67 mg/dL
- CARBON DIOXIDE [3]: 25.33 mmol/L
- CHLORIDE [3]: 103 MEQ/L
- CHOLESTEROL [3]: 72.33 mg/dL
- CREATINE PHOSPHOKINASE [3]: 199.67 u/L
- CREATININE [3]: 0.14 mg/dL
- GLUCOSE [3]: 152 mg/dL
- LACTATE DEHYDROGENASE [3]: 149.67 u/L
- LIPASE [3]: 9.33 u/L
- PHOSPHORUS [3]: 13 mg/dL
- POTASSIUM [3]: 7.04 MEQ/L
- SODIUM [3]: 144.5 MEQ/L
- TOTAL BILIRUBIN [3]: 0.17 mg/dL
- TOTAL PROTEIN [3]: 5.57 G/DL
- URIC ACID [3]: 1.53 mg/dL

Source: ChEMBL document CHEMBL3885881, “DrugMatrix”
